For one experiment, the system named is PTGS1 (COX1). The experiment is described as follows: Effects of Tempol on gene expression in cardiac tissue, chip-based microarray. It counts as in vivo. The settings on record: mice, Tempol 5 mg/g of food from 14 to 31 months after birth. On the procedure:
To assess the effects of Tempol on gene expression, Tempol was administered to experimental mice at a dose of 5 mg/g of food from 14 months to 31 months after birth. Mice receiving the same food without the addition of Tempol were used as a negative control. At the age of 31 months, the experimental animals were sacrificed and the hearts were surgically removed. The expression of a broad spectrum of genes in the cardiac tissue was assessed using chip-based microarray technology. Such chips are well known in the art and are widely used to assess gene expression.

For another experiment, the system named is COX1. Description: Treatment of human subject with Tempol, serum level of COX1. It counts as in vivo. The settings on record: 2000 mg per day for 180 days. On the procedure: A 70-kilogram human subject over the age of 65 and having a cardiovascular disease is identified for an increased expression level of COX1. Or a 70-kilogram human subject over the age of 65 is known to have a cardiovascular disease and/or […] expression level of COX1. The human subject is administered a dose of 2000 mg of Tempol (or another nitroxide antioxidant) per day for 180 days. This may be administered in a single dose, or may be administered as a number of smaller doses over a 24-hour period: for example, four 500-mg doses at […]. Following treatment, the serum level of COX1, is decreased.
A 70-kilogram human subject at risk of developing colorectal cancer is identified for increased expression level of COX1. Or a 70-kilogram human subject is known to be at risk of developing colorectal cancer and/or have increased expression level of COX1. The human subject is administered a dose of 2000 mg of Tempol (or another nitroxide antioxidant) per day for 180 days. This may be administered in a single dose, or may be administered as a number of smaller doses over a 24-hour period: for example, four 500-mg doses at […]. Following treatment, the serum level of COX1, is decreased. […]
A 70-kilogram human subject having an infection (e.g., a bacterial, fungal, or viral infection) is identified for increased expression level of COX1. Or a 70-kilogram human subject is known to have an infection and/or have increased expression level of COX1. The human subject is administered a dose of 2000 mg of Tempol (or another nitroxide antioxidant) per day for 180 days. This may be administered in a single dose, or may be administered as a number of smaller doses over a 24-hour period: for example, four 500-mg doses at […]. Following treatment, the serum level of COX1, is decreased.

Take `CC1(C)CC(O)CC(C)(C)N1[O]` [Tempol, 4-hydroxy-2,2,6,6-tetramethylpiperidine-1-oxyl]: in the experiment with PTGS1 (COX1) (hearts at 31 months, vs same food without Tempol, P-value 0.006), the “Fold change (gene expression in cardiac tissue after Tempol administration)” value is reported as −1.18. For the same compound, in the experiment with PTGS1 (COX1) (microarray), the “COX1 expression in cardiac tissue” value is listed as “statistically significant decrease in expression”. Further, the “serum level of COX1 following treatment” value was “decreased” in the experiment with COX1 (Example 2: 70-kilogram human subject over the age of 65 with increased COX1 expression); “decreased” in the experiment with COX1 (Example 3: 70-kilogram human subject with increased COX1 expression); “decreased” in the experiment on COX1 (Example 4: 70-kilogram human subject over the age of 65 having a cardiovascular disease); “decreased” in the experiment on COX1 (Example 5: 70-kilogram human subject at risk of developing colorectal cancer); “decreased” in the experiment with COX1 (Example 6: 70-kilogram human subject at risk of developing an autoimmune disease (e.g., rheumatoid arthritis)); “decreased” in the experiment on COX1 (Example 7: 70-kilogram human subject at risk of developing a condition due to aging). The “serum level of COX1 following treatment” value is recorded as “decreased” with COX1 (Example 8: 70-kilogram human subject at risk of developing a neurodegenerative disease (e.g., Parkinson's Disease)) and “decreased” with COX1 (Example 9: 70-kilogram human subject having an infection (bacterial, fungal, or viral)).

Source of the values: US20250041285A1, “MODIFYING THE […] OF A GENE ENCODING AN CYCLOOXYGENASE ENZYME BY TREATING A HUMAN SUBJECT WITH A NITROXIDE” (priority 2021, published 2025).
